Experimental data taken from PMC6152318 (Molecules : A Journal of Synthetic Chemistry and Natural …, 2017).

Legend:
[1] = target: Human serum albumin (HSA) IIA binding site (Homo sapiens, UniProt P02768); experiment: Flavonoid fluorescence (excitation 450 nm) on HSA pre-saturated with warfarin (simultaneous binding / displacement)
Description: HSA was freshly dissolved in Dulbecco’s phosphate-buffered saline pH 7.4 (137 mM sodium chloride, 2.7 mM potassium chloride, 8.1 mM disodium hydrogen phosphate, 1.47 mM potassium dihydrogen phosphate) immediately before measurements. […]. In all experiments, the final co-solvent concentration was held below 5%. This was done to prevent conformational changes of HSA due to changes in dielectric constant of the solvent.
Steady-state fluorescence was recorded using a thermostated Safas Xenius fluorometer (Safas Monaco, Monaco) with an integrated stirrer. All studies were performed at 25 ± 1 °C using 10 nm excitation and emission slit widths. […] Higher concentrations of HSA and ligands were not used due to poor solubility of ligands and high influence of ligand absorption. Measurements were performed in duplicate.

[2] = target: T1, Human serum albumin (HSA) (Homo sapiens, UniProt P02768); experiment: Binding constants by quenching of HSA tryptophan fluorescence
T1 construct: Fatty acid free HSA and warfarin sodium were purchased from Sigma-Aldrich; purchased Sigma-Aldrich (St. Louis, MO, USA)
T1 sequence (P02768 25-609): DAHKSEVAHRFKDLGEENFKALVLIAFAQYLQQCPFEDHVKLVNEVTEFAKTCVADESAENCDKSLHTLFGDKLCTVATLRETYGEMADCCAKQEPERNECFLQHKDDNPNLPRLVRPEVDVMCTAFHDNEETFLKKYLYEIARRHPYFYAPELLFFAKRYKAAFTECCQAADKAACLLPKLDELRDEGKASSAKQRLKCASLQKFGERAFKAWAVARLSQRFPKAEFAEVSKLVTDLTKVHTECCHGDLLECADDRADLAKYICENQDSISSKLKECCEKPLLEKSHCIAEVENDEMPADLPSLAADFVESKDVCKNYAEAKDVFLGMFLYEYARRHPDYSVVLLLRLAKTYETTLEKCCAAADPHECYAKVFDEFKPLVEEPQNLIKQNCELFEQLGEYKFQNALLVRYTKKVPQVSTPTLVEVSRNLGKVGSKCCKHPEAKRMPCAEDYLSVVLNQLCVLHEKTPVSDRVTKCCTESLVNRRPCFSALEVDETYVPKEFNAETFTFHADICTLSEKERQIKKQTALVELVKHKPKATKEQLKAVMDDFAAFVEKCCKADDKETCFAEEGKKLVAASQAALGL
Description: In all experiments, the final co-solvent concentration was held below 5%. This was done to prevent conformational changes of HSA due to changes in dielectric constant of the solvent.
Steady-state fluorescence was recorded using a thermostated Safas Xenius fluorometer (Safas Monaco, Monaco) with an integrated stirrer. All studies were performed at 25 ± 1 °C using 10 nm excitation and emission slit widths. […] Measurements were performed in duplicate.
A stock solution of a single ligand was gradually added via syringe to a 2 mL of a 6 μM HSA solution placed in a quartz cell. Measurements were conducted at the excitation wavelength of 295 nm and emission was recorded in the 310–400 nm range enabling calculations of corresponding binding constants. […] Binding constants were determined according to Dufour and Dangles. A Scatchard analysis was performed assuming n identical binding sites on HSA. Values for binding constant (K), molar fluorescence intensity of the complex (f), and the stoichiometric coefficient (n) were estimated by fitting the F vs. Lt curves against Equations (1) and (2) using a least-square regression program Scientist (MicroMath, Salt Lake City, UT, USA), where F is fluorescence intensity, [L] the free ligand concentration, [Lt] the total ligand concentration, and c the total albumin concentration. […] In all cases, the inner filter effect was taken into account by using absorption of free ligands at excitation and emission wavelengths (εex and εem, respectively) (Equation (3)), where Fcorr is the fluorescence corrected for the inner filter effect, F0 is the measured fluorescence, ε is the sum of εex and εem, l = 0.65 is the optical path and c is the flavonoid concentration. (1) Fcorr=fcnK[L]/1+K[L] (2) [Lt]=[L](1+ncK/1+K[L]) (3) F0=Fcorr×10^−εlc

[3] = Flavonoid fluorescence in buffer solution without HSA
[4] = HSA 0-92% saturated with warfarin

Sequence of Human serum albumin (HSA) IIA binding site (P02768 25-609): as above

## O=c1cc(-c2ccc(O)c(O)c2)oc2cc(O)cc(O)c12 [Luteolin]
[1]; [4]
  Effect of warfarin on flavonoid Fmax (maximum fluorescence): no noticeable change
  Effect of warfarin on flavonoid cmax (concentration needed to achieve Fmax): no noticeable change
[1]; flavonoid 2,00 uM, 0% occupied HSA
  Absolute fluorescence intensity: 3,5310
[1]; flavonoid 2,00 uM, 22% occupied HSA
  Absolute fluorescence intensity: 3,0516
[1]; flavonoid 2,00 uM, 38% occupied HSA
  Absolute fluorescence intensity: 3,2663
[1]; flavonoid 2,00 uM, 63% occupied HSA
  Absolute fluorescence intensity: 2,9688
[1]; flavonoid 2,00 uM, 92% occupied HSA
  Absolute fluorescence intensity: 3,0838
[1]; flavonoid 4,00 uM, 0% occupied HSA
  Absolute fluorescence intensity: 5,6541
[1]; flavonoid 4,00 uM, 22% occupied HSA
  Absolute fluorescence intensity: 5,0287
[1]; flavonoid 4,00 uM, 38% occupied HSA
  Absolute fluorescence intensity: 5,0961
[1]; flavonoid 4,00 uM, 63% occupied HSA
  Absolute fluorescence intensity: 4,7527
[1]; flavonoid 4,00 uM, 92% occupied HSA
  Absolute fluorescence intensity: 4,7445
[1]; flavonoid 6,00 uM, 0% occupied HSA
  Absolute fluorescence intensity: 7,6599
[1]; flavonoid 6,00 uM, 22% occupied HSA
  Absolute fluorescence intensity: 6,8528
[1]; flavonoid 6,00 uM, 38% occupied HSA
  Absolute fluorescence intensity: 6,8106
[1]; flavonoid 6,00 uM, 63% occupied HSA
  Absolute fluorescence intensity: 6,3873
[1]; flavonoid 6,00 uM, 92% occupied HSA
  Absolute fluorescence intensity: 6,5159
[1]; flavonoid 7,99 uM, 0% occupied HSA
  Absolute fluorescence intensity: 9,4059
[1]; flavonoid 7,99 uM, 22% occupied HSA
  Absolute fluorescence intensity: 8,8217
[1]; flavonoid 7,99 uM, 38% occupied HSA
  Absolute fluorescence intensity: 8,5002
[1]; flavonoid 7,99 uM, 63% occupied HSA
  Absolute fluorescence intensity: 7,8443
[1]; flavonoid 7,99 uM, 92% occupied HSA
  Absolute fluorescence intensity: 8,1746
[1]; flavonoid 11,98 uM, 0% occupied HSA
  Absolute fluorescence intensity: 11,5397
[1]; flavonoid 11,98 uM, 22% occupied HSA
  Absolute fluorescence intensity: 11,3861
[1]; flavonoid 11,98 uM, 38% occupied HSA
  Absolute fluorescence intensity: 11,3711
[1]; flavonoid 11,98 uM, 63% occupied HSA
  Absolute fluorescence intensity: 10,9648
[1]; flavonoid 11,98 uM, 92% occupied HSA
  Absolute fluorescence intensity: 10,4774
[1]; flavonoid 15,97 uM, 0% occupied HSA
  Absolute fluorescence intensity: 14,0865
[1]; flavonoid 15,97 uM, 22% occupied HSA
  Absolute fluorescence intensity: 14,1260
[1]; flavonoid 15,97 uM, 38% occupied HSA
  Absolute fluorescence intensity: 13,9507
[1]; flavonoid 15,97 uM, 63% occupied HSA
  Absolute fluorescence intensity: 13,0693
[1]; flavonoid 15,97 uM, 92% occupied HSA
  Absolute fluorescence intensity: 12,9194
[1]; flavonoid 23,93 uM, 0% occupied HSA
  Absolute fluorescence intensity: 17,9442
[1]; flavonoid 23,93 uM, 22% occupied HSA
  Absolute fluorescence intensity: 17,8085
[1]; flavonoid 23,93 uM, 38% occupied HSA
  Absolute fluorescence intensity: 17,8530
[1]; flavonoid 23,93 uM, 63% occupied HSA
  Absolute fluorescence intensity: 17,0150
[1]; flavonoid 23,93 uM, 92% occupied HSA
  Absolute fluorescence intensity: 16,3518
[1]; flavonoid 31,87 uM, 0% occupied HSA
  Absolute fluorescence intensity: 20,8667
[1]; flavonoid 31,87 uM, 22% occupied HSA
  Absolute fluorescence intensity: 20,4964
[1]; flavonoid 31,87 uM, 38% occupied HSA
  Absolute fluorescence intensity: 20,5131
[1]; flavonoid 31,87 uM, 63% occupied HSA
  Absolute fluorescence intensity: 19,6701
[1]; flavonoid 31,87 uM, 92% occupied HSA
  Absolute fluorescence intensity: 19,1278
[1]; flavonoid 39,80 uM, 0% occupied HSA
  Absolute fluorescence intensity: 22,9301
[1]; flavonoid 39,80 uM, 22% occupied HSA
  Absolute fluorescence intensity: 22,5924
[1]; flavonoid 39,80 uM, 38% occupied HSA
  Absolute fluorescence intensity: 22,2082
[1]; flavonoid 39,80 uM, 63% occupied HSA
  Absolute fluorescence intensity: 21,6524
[1]; flavonoid 39,80 uM, 92% occupied HSA
  Absolute fluorescence intensity: 20,8642
[1]; flavonoid 47,71 uM, 0% occupied HSA
  Absolute fluorescence intensity: 24,5206
[1]; flavonoid 47,71 uM, 22% occupied HSA
  Absolute fluorescence intensity: 23,8063
[1]; flavonoid 47,71 uM, 38% occupied HSA
  Absolute fluorescence intensity: 23,5737
[1]; flavonoid 47,71 uM, 63% occupied HSA
  Absolute fluorescence intensity: 23,1678
[1]; flavonoid 47,71 uM, 92% occupied HSA
  Absolute fluorescence intensity: 22,5713
[1]; flavonoid 63,49 uM, 0% occupied HSA
  Absolute fluorescence intensity: 26,4505
[1]; flavonoid 63,49 uM, 22% occupied HSA
  Absolute fluorescence intensity: 25,9034
[1]; flavonoid 63,49 uM, 38% occupied HSA
  Absolute fluorescence intensity: 25,4318
[1]; flavonoid 63,49 uM, 63% occupied HSA
  Absolute fluorescence intensity: 24,8572
[1]; flavonoid 63,49 uM, 92% occupied HSA
  Absolute fluorescence intensity: 24,6423
[1]; flavonoid 79,21 uM, 0% occupied HSA
  Absolute fluorescence intensity: 26,9488
[1]; flavonoid 79,21 uM, 22% occupied HSA
  Absolute fluorescence intensity: 26,5002
[1]; flavonoid 79,21 uM, 38% occupied HSA
  Absolute fluorescence intensity: 26,5136
[1]; flavonoid 79,21 uM, 63% occupied HSA
  Absolute fluorescence intensity: 25,8191
[1]; flavonoid 79,21 uM, 92% occupied HSA
  Absolute fluorescence intensity: 25,3909
[1]; flavonoid 98,77 uM, 0% occupied HSA
  Absolute fluorescence intensity: 27,2939
[1]; flavonoid 98,77 uM, 22% occupied HSA
  Absolute fluorescence intensity: 27,2804
[1]; flavonoid 98,77 uM, 38% occupied HSA
  Absolute fluorescence intensity: 26,9116
[1]; flavonoid 98,77 uM, 63% occupied HSA
  Absolute fluorescence intensity: 26,1311
[1]; flavonoid 98,77 uM, 92% occupied HSA
  Absolute fluorescence intensity: 26,2198
[1]; flavonoid 118,23 uM, 0% occupied HSA
  Absolute fluorescence intensity: 27,1078
[1]; flavonoid 118,23 uM, 22% occupied HSA
  Absolute fluorescence intensity: 27,1338
[1]; flavonoid 118,23 uM, 38% occupied HSA
  Absolute fluorescence intensity: 26,9198
[1]; flavonoid 118,23 uM, 63% occupied HSA
  Absolute fluorescence intensity: 26,3501
[1]; flavonoid 118,23 uM, 92% occupied HSA
  Absolute fluorescence intensity: 26,3929
[1]; flavonoid 137,59 uM, 0% occupied HSA
  Absolute fluorescence intensity: 26,3217
[1]; flavonoid 137,59 uM, 22% occupied HSA
  Absolute fluorescence intensity: 26,7053
[1]; flavonoid 137,59 uM, 38% occupied HSA
  Absolute fluorescence intensity: 26,6416
[1]; flavonoid 137,59 uM, 63% occupied HSA
  Absolute fluorescence intensity: 26,1054
[1]; flavonoid 137,59 uM, 92% occupied HSA
  Absolute fluorescence intensity: 26,3918
[1]; flavonoid 156,86 uM, 0% occupied HSA
  Absolute fluorescence intensity: 25,8093
[1]; flavonoid 156,86 uM, 22% occupied HSA
  Absolute fluorescence intensity: 26,0626
[1]; flavonoid 156,86 uM, 38% occupied HSA
  Absolute fluorescence intensity: 26,1509
[1]; flavonoid 156,86 uM, 63% occupied HSA
  Absolute fluorescence intensity: 25,5239
[1]; flavonoid 156,86 uM, 92% occupied HSA
  Absolute fluorescence intensity: 25,7773
[2]
  Kd: 8.2 µM
[3]; flavonoid 2,00 uM
  Absolute fluorescence intensity: 0,5984
[3]; flavonoid 4,00 uM
  Absolute fluorescence intensity: 0,7341
[3]; flavonoid 7,99 uM
  Absolute fluorescence intensity: 0,8094
[3]; flavonoid 15,97 uM
  Absolute fluorescence intensity: 0,8481
[3]; flavonoid 31,87 uM
  Absolute fluorescence intensity: 1,0538
[3]; flavonoid 47,71 uM
  Absolute fluorescence intensity: 1,3400
[3]; flavonoid 63,49 uM
  Absolute fluorescence intensity: 1,5045
[3]; flavonoid 79,21 uM
  Absolute fluorescence intensity: 1,7483
[3]; flavonoid 118,23 uM
  Absolute fluorescence intensity: 2,2774
[3]; flavonoid 156,86 uM
  Absolute fluorescence intensity: 2,8851
